Blank lines part the entries; values can stand above or below the compound they belong to.
What was measured:
[1] = system: human lung cancer strain NCI-H441; assay type: cell-based
Summary of the method: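 Proliferation was scored by […] measured after the reagent was added to cultures kept at 37°C in 5% carbon dioxide.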

[2] = molecular target: GDP-bound KRAS wild-type protein (Homo sapiens, UniProt P01116); assay: Binding to KRAS by surface plasmon resonance (SPR), dissociation constant KD; details: Single Cycle Kinetics, 1:1 binding model
Sequence of GDP-bound KRAS wild-type protein (P01116 1-188 isoform P01116-2): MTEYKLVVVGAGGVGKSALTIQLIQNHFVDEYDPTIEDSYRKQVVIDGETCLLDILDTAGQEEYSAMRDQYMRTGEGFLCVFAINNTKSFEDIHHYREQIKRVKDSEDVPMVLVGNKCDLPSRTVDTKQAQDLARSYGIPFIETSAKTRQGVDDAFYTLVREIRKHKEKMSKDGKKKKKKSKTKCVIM
Summary of the method: (§1)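 Compound binding is evaluated by SPR single-cycle kinetics, with concentrations added intermittently from low to high for 75 s each. Target surfaces carry GDP-loaded biotinylated Avi-RAS at about 100–300 RU, regenerated after each cycle; temperature 30°C. A 1:1 binding model gives KD.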

HRAS wild-type protein = HRAS wild-type protein (Homo sapiens, UniProt P01112); assay: Binding to HRAS by surface plasmon resonance (SPR), KD and KD ratio to KRAS; details: ratio of KD value for HRAS wild-type protein to KD value for KRAS (SPR)
Sequence of HRAS wild-type protein (P01112 whole entry): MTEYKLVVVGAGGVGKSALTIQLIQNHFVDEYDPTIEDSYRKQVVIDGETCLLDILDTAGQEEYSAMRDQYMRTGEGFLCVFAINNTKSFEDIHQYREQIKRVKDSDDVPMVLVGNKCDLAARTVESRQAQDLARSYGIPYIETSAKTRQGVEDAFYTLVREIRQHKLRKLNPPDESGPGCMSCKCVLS
Summary of the method: as §1

[3] = molecular target: GDP-bound NRAS wild-type protein (Homo sapiens, UniProt P01111); assay: Binding to NRAS by surface plasmon resonance (SPR), KD and KD ratio to KRAS; details: ratio of KD value for GDP-bound NRAS wild-type protein to KD value for KRAS (SPR)
Sequence of GDP-bound NRAS wild-type protein (P01111 whole entry): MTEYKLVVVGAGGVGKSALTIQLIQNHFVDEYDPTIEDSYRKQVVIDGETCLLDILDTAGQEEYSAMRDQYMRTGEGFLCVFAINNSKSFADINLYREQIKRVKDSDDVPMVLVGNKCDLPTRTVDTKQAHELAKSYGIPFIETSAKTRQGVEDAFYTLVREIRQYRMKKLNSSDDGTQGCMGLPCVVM
Summary of the method: as §1

Compound: CC[C@H](C)[C@@H]1NC(=O)[C@H](CC2CC2)N(C)C(=O)C[C@@H](C(=O)N2CCCC2)N(C)C(=O)[C@H](C2CCCC2)N(C)C(=O)C2(CCCC2)NC(=O)[C@@H]2C[C@@H](C(F)(F)F)CN2C(=O)[C@H](CCc2cc(F)c(C(F)(F)F)c(F)c2)NC(=O)CN(C)C(=O)[C@H](Cc2ccc(F)cc2)N2CC/C=C\C[C@@H](C2=O)N(C)C(=O)CN(C)C1=O [PP1509]
IC50 [1]: 67.9 nM
Kd [2]: 0.4 nM
HRAS /KRAS (HRAS wild-type protein): A (a compound having 10 or more and less than 20 is denoted as A)
NRAS /KRAS [3]: A (a compound having 10 or more and less than 20 is denoted as A)

Compound: CCO[C@@H]1C[C@H]2C(=O)NC3(CCC3)C(=O)N(C)[C@@H](C(CC)CC)C(=O)N(C)[C@H](C(=O)N(C)C)CC(=O)N(C)[C@@H](CC3CC3)C(=O)N[C@@H]([C@@H](C)CC)C(=O)N(C)CC(=O)N(C)[C@H]3C/C=C\CCN(C3=O)[C@@H](Cc3ccc(F)cc3C)C(=O)N(C)CC(=O)N[C@@H](CCc3cc(F)c(C(F)(F)F)c(F)c3)C(=O)N2C1 [PP1514]
IC50 [1]: 72.7 nM
Kd [2]: 0.65 nM
HRAS /KRAS (HRAS wild-type protein): A (a compound having 10 or more and less than 20 is denoted as A)
NRAS /KRAS [3]: A (a compound having 10 or more and less than 20 is denoted as A)

Compound: CCO[C@@H]1C[C@H]2C(=O)NC3(CCC3)C(=O)N(C)[C@@H](C(CC)CC)C(=O)N(C)[C@H](C)CC(=O)N(C)[C@@H](CC3CC3)C(=O)N[C@@H]([C@@H](C)CC)C(=O)N(C)CC(=O)N(C)[C@H]3C/C=C\CCN(C3=O)[C@@H](Cc3ccc(F)cc3C)C(=O)N(C)CC(=O)N[C@@H](CCc3cc(F)c(C(F)(F)F)c(F)c3)C(=O)N2C1 [PP1520]
IC50 [1]: 575 nM
Kd [2]: 6.6 nM
HRAS /KRAS (HRAS wild-type protein): A (a compound having 10 or more and less than 20 is denoted as A)
NRAS /KRAS [3]: A (a compound having 10 or more and less than 20 is denoted as A)

Compound: CCO[C@@H]1C[C@H]2C(=O)NC3(CCC3)C(=O)N(C)[C@@H](C(CC)CC)C(=O)N(C)[C@H](C)CC(=O)N(C)[C@@H](CC(C)C)C(=O)N[C@@H]([C@@H](C)CC)C(=O)N(C)CC(=O)N(C)[C@H]3C/C=C\CCN(C3=O)[C@@H](Cc3ccc(F)cc3C)C(=O)N(C)CC(=O)N[C@@H](CCc3cc(F)c(C(F)(F)F)c(F)c3)C(=O)N2C1 [PP1524]
IC50 [1]: 439 nM
Kd [2]: 5.7 nM
HRAS /KRAS (HRAS wild-type protein): B (a compound having 3 or more and less than 10 is denoted as B)
NRAS /KRAS [3]: B (a compound having 3 or more and less than 10 is denoted as B)

Compound: CCO[C@@H]1C[C@H]2C(=O)NC3(CCC3)C(=O)N(C)[C@@H](C(CC)CC)C(=O)N(C)[C@H](C)CC(=O)N(C)[C@@H](CC(C)C)C(=O)N[C@@H]([C@@H](C)CC)C(=O)N(C)CC(=O)N(C)[C@H]3C/C=C\CCN(C3=O)[C@@H](Cc3ccc(F)cc3)C(=O)N(C)CC(=O)N[C@@H](CCc3cc(F)c(C(F)(F)F)c(F)c3)C(=O)N2C1 [PP1525]
IC50 [1]: 132 nM
Kd [2]: 1.7 nM
HRAS /KRAS (HRAS wild-type protein): A (a compound having 10 or more and less than 20 is denoted as A)
NRAS /KRAS [3]: A (a compound having 10 or more and less than 20 is denoted as A)

Compound: CCO[C@@H]1C[C@H]2C(=O)NC3(CCC3)C(=O)N(C)[C@@H](C(CC)CC)C(=O)N(C)[C@H](C(=O)N3CCOCC3)CC(=O)N(C)[C@@H](CC3CC3)C(=O)N[C@@H]([C@@H](C)CC)C(=O)N(C)CC(=O)N(C)[C@H]3C/C=C\CCN(C3=O)[C@@H](Cc3ccc(F)cc3)C(=O)N(C)CC(=O)N[C@@H](CCc3cc(F)c(C(F)(F)F)c(F)c3)C(=O)N2C1 [PP1527]
IC50 [1]: 143 nM
Kd [2]: 0.95 nM
HRAS /KRAS (HRAS wild-type protein): A (a compound having 10 or more and less than 20 is denoted as A)
NRAS /KRAS [3]: A (a compound having 10 or more and less than 20 is denoted as A)

Compound: CCO[C@@H]1C[C@H]2C(=O)NC3(CCC3)C(=O)N(C)[C@@H](C3CCCC3)C(=O)N(C)[C@H](C(=O)N(C)C)CC(=O)N(C)[C@@H](CC3CC3)C(=O)N[C@@H]([C@@H](C)CC)C(=O)N(C)CC(=O)N(C)[C@H]3C/C=C\CCN(C3=O)[C@@H](Cc3ccc(F)cc3C)C(=O)N(C)CC(=O)N[C@@H](CCc3cc(F)c(C(F)(F)F)c(F)c3)C(=O)N2C1 [PP1528]
IC50 [1]: 45.6 nM
Kd [2]: 0.2 nM
HRAS /KRAS (HRAS wild-type protein): B (a compound having 3 or more and less than 10 is denoted as B)
NRAS /KRAS [3]: A (a compound having 10 or more and less than 20 is denoted as A)

Further lines, with some results ahead:

IC50 [1]: 121 nM
Kd [2]: 2.7 nM
Compound: C=CCCCCN(C)C(=O)[C@@H]1CC(=O)N(C)[C@@H](CC2CC2)C(=O)N[C@@H](CC=C)C(=O)N(C)CC(=O)N(C)[C@H]2C/C=C\CCN(C2=O)[C@@H](Cc2ccc(C(F)(F)F)cc2)C(=O)N(C)CC(=O)N[C@@H](CCc2cc(F)c(C(F)(F)F)c(F)c2)C(=O)N2C[C@H](OCC)C[C@H]2C(=O)NC2(CCC2)C(=O)N(C)[C@@H](C2CCCC2)C(=O)N1C [PP1554]
HRAS /KRAS (HRAS wild-type protein): A (a compound having 10 or more and less than 20 is denoted as A)
NRAS /KRAS [3]: A (a compound having 10 or more and less than 20 is denoted as A)

IC50 [1]: 86.3 nM
Kd [2]: 1.2 nM
Compound: C=CC[C@@H]1NC(=O)[C@H](CC2CC2)N(C)C(=O)C[C@@H](C(=O)N(C)CC=C)N(C)C(=O)[C@H](C2CCCC2)N(C)C(=O)C2(CCC2)NC(=O)[C@@H]2C[C@@H](OCC)CN2C(=O)[C@H](CCc2cc(F)c(C(F)(F)F)c(F)c2)NC(=O)CN(C)C(=O)[C@H](Cc2ccc(C(F)(F)F)cc2)N2CC/C=C\C[C@@H](C2=O)N(C)C(=O)CN(C)C1=O [PP1557]
HRAS /KRAS (HRAS wild-type protein): A (a compound having 10 or more and less than 20 is denoted as A)
NRAS /KRAS [3]: A (a compound having 10 or more and less than 20 is denoted as A)

IC50 [1]: 6.5 nM
Kd [2]: 0.11 nM
Compound: CCO[C@@H]1C[C@H]2C(=O)NC3(CC(C)(C)C3)C(=O)N(C)[C@@H](C3CCCC3)C(=O)N(C)[C@H](C(=O)N(C)C)CC(=O)N(C)[C@@H](CC3CCCC3)C(=O)N[C@@H]([C@@H](C)CC)C(=O)N(C)CC(=O)N(C)[C@H]3C/C=C\CCN(C3=O)[C@@H](Cc3ccc(C(F)(F)F)cc3)C(=O)N(C)CC(=O)N[C@@H](CCc3ccc(C(F)(F)F)c(OC)c3)C(=O)N2C1 [PP1565]
HRAS /KRAS (HRAS wild-type protein): B (a compound having 3 or more and less than 10 is denoted as B)
NRAS /KRAS [3]: A (a compound having 10 or more and less than 20 is denoted as A)

IC50 [1]: 5.2 nM
Kd [2]: 0.12 nM
Compound: CCO[C@@H]1C[C@H]2C(=O)NC3(CCC3)C(=O)N(C)[C@@H](C3CCCC3)C(=O)N(C)[C@H](C(=O)N(C)CC)CC(=O)N(C)[C@@H](CC3CCCC3)C(=O)N[C@@H]([C@@H](C)CC)C(=O)N(C)CC(=O)N(C)[C@H]3C/C=C\CCN(C3=O)[C@@H](Cc3ccc(C(F)(F)F)cc3)C(=O)N(C)CC(=O)N[C@@H](CCc3ccc(C(F)(F)F)c(OC)c3)C(=O)N2C1 [PP1573]
HRAS /KRAS (HRAS wild-type protein): A (a compound having 10 or more and less than 20 is denoted as A)
NRAS /KRAS [3]: A (a compound having 10 or more and less than 20 is denoted as A)

IC50 [1]: 7.6 nM
Kd [2]: 0.14 nM
Compound: CCCC[C@H]1C(=O)N[C@@H]([C@@H](C)CC)C(=O)N(C)CC(=O)N(C)[C@H]2C/C=C\CCN(C2=O)[C@@H](Cc2ccc(C(F)(F)F)cc2)C(=O)N(C)CC(=O)N[C@@H](CCc2cc(F)c(C(F)(F)F)c(F)c2)C(=O)N2C[C@H](OCC)C[C@H]2C(=O)NC2(CCC2)C(=O)N(C)[C@@H](C2CCCC2)C(=O)N(C)[C@H](C(=O)N(CC)CC)CC(=O)N1C [PP1576]
HRAS /KRAS (HRAS wild-type protein): A (a compound having 10 or more and less than 20 is denoted as A)
NRAS /KRAS [3]: AA (a compound having 20 or more is denoted as AA)
